Drawing on BindingDB's records for patent WO2024074497 (Forx Therapeutics, 2024), this text covers IC50 for one compound.

Structures are written as SMILES. pIC50: −log10 of the molar value.

For this test, the target named is T1, Poly(ADP-ribose) glycohydrolase [448-976,L473S,N479S,S802A,R811K,M841I,S858P,I916T,T924D,D927K,C963S,A967T] (UniProt Q86W56, A967T/C963S/D927K/I916T/L473S/M841I/N479S/R811K/S802A/S858P/T924D).
T1 construct: 448-976
In words: PARG enzymatic IC50 assay. The procedure: PARG enzyme as incubated with compound or vehicle (DMSO) for 15 minutes or 2 hours in a 384 well plate. After adding the PARG substrate ADP-ribose-pNP, the plate was read for absorbance intensity at 405 nm. The vehicle (DMSO) with high absorbance intensity represents no inhibition of enzymatic reaction while the low control (no enzyme) with low absorbance intensity represents full inhibition of enzymatic reaction.

A word on the pIC50: it is the IC50 on a negative log10 scale, so that one unit is a factor of ten. High values mean a small IC50, low ones a large IC50.

T1 sequence (Q86W56 448-976 L473S/N479S/S802A/R811K/M841I/S858P/I916T/T924D/D927K/C963S/A967T): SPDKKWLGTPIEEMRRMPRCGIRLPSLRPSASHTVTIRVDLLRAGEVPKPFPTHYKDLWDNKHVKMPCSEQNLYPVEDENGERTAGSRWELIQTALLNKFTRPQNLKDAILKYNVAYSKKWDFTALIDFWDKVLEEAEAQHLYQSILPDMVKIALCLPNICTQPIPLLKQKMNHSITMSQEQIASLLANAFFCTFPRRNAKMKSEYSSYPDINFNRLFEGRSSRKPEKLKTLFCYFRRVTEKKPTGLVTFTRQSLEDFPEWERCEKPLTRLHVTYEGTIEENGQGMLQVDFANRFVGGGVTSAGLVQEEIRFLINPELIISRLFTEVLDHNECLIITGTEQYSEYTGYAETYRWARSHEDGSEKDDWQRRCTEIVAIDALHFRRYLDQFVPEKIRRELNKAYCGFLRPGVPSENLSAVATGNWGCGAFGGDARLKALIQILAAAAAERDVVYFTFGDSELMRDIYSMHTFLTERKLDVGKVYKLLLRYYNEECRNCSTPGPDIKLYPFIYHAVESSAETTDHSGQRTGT

In the case of `C[C@H]1CN(c2cc(S(=O)(=O)NC3(C)CC3)cn3c(-c4nnc(C(F)F)s4)ncc23)C[C@H](C)N1` [WO2024074497, Example 1], the pIC50 was 6.96.
